From PubChem BioAssay AID489024 (Sanford-Burnham Center for Chemical Genomics, 2010) come the findings set out here.

The pEC50 is the EC50 on a negative log10 scale, so that one unit is a factor of ten. The EC50 is the concentration giving half of the maximal effect.

Structures are written as SMILES. pEC50: −log10 of the molar value. Active and inactive are the calls of the source.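 Rule for the calls: active = compounds whose mean EC50, the dose giving half the maximal reporter activation, is at or below a set limit; inactive = the rest.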

For this assay, the target named is CHO-CHOP luciferase reporter, UPR activation, luminescence. In words: CHOP reporter induction, apoptotic UPR branch – CHO-CHOP cells, luciferase luminescence, confirmation (AID 489024).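 Note: compounds added alone to reporter cells with no tunicamycin stress co-treatment.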
With `O=C(Nc1ccc(S(=O)(=O)N2CCCC2)cc1)c1ccc([N+](=O)[O-])o1`, the pEC50 was 6.09.

For the compound `CCOC(=O)C(=Cc1ccc(F)cc1)C(=O)OCC`, the EC50 is > 80 µM (inactive).

Regarding `O=C1C=CC(=O)N1c1ccc(N2CCCCC2)cc1`, the EC50 was > 80 µM (inactive).

Regarding `O=C(CCl)Nc1cc(S(=O)(=O)N2CCCCCC2)ccc1Cl`, the EC50 is > 80 µM (inactive).

`O=C(Nc1ccc2oc(-c3ccncc3)nc2c1)c1ccc([N+](=O)[O-])o1`: the pEC50 is 6.09.

For `O=C(/C=C/c1ccc(O)c(O)c1)c1ccccc1O`, the pEC50 is 5.33.

Consider `CC1=C(/C=C/C(C)=C/C=C/C(C)=C/C(=O)Nc2ccc(O)cc2)C(C)(C)CCC1`, for which the pEC50 was 4.84.

Take `Cc1ccc(NN2C(=O)C=C(c3ccccc3)C2=O)cc1`: the pEC50 is 4.84.

For the compound `O=C(CN(c1cccc(C(F)(F)F)c1)S(=O)(=O)c1ccc(Cl)c([N+](=O)[O-])c1)NCc1ccc(F)cc1`, the pEC50 was 4.93.

Consider `Nc1nnnn1/N=C/C(Br)=C/c1ccccc1`, for which the pEC50 is 5.65.

With `Brc1ccc(-c2ccc(/C=N/Nc3nncc(-c4ccccc4)n3)o2)cc1`, the pEC50 is 4.72.

For `C/C(=N\NC(=O)c1ccc(F)cc1)c1ccccn1`, the pEC50 is 5.08.

With `CCOc1ccc(-n2c(C)cc(C(=O)CCl)c2C)cc1`, the pEC50 was 5.16.

`COCCN=c1scc(-c2cccs2)n1/N=C/c1ccc(O)c(O)c1O`: the EC50 entry was “inactive”.

Take `Cc1cc(C)n(-c2nc(NC(C)(C)C)nc(NC(C)(C)C)n2)n1`: the EC50 is > 80 µM (inactive).

For the compound `Cc1ccc(-c2nn(-c3ccccc3)cc2C=C2C(=O)CC(C)(C)CC2=O)cc1`, the pEC50 is 4.88.

Consider `CCCN1Cc2cccc(C(=O)Nc3ccc(-c4nc5ccccc5[nH]4)cc3)c2C1=O`, for which the EC50 is > 80 µM (inactive).

With `Cc1cc(C(=O)c2ccc(C(C)(C)C)cc2)c(NC(=O)CCl)s1`, the pEC50 is 4.91.

On to `O=C(Nc1nc(-c2ccccn2)cs1)c1ccc(Br)s1`, for which the pEC50 is 5.08.

Regarding `C/C(=N\NC(=O)c1cc(-c2cccs2)nc2ccccc12)c1ccccn1`, the pEC50 was 5.30.

Regarding `Cc1ccc(NC(=O)Cn2ncc(Cl)c(Cl)c2=O)cc1S(=O)(=O)N1CCCCC1`, the pEC50 is 5.19.

On to `Cn1c2ccccc2c2cc(/C=N/NC(=O)c3cc(O)ccc3O)ccc21`, for which the pEC50 was 5.27.

For `CCOC(=O)c1ccc(-c2ccc(/C=N/NC(=O)CN(c3cccc(C)c3)S(C)(=O)=O)o2)cc1`, the negative-log EC50 (pEC50) was 4.70.

Turning to `COC(=O)c1c(NC(=O)c2ccc([N+](=O)[O-])o2)sc2c1CCN(C(C)C)C2`, the pEC50 was 5.75.

On to `O=C1Nc2ccccc2/C1=C/C(=O)c1cccs1`, for which the pEC50 was 4.84.

Take `COC(=O)c1cc(=O)n(Cc2ccco2)c(=Nc2ccc(F)c(Cl)c2)s1`: the pEC50 was 4.77.

`S=C1SCN(Cc2ccccn2)CN1Cc1ccco1`: the EC50 was > 80 µM (inactive).

Turning to `O=C1NC(=O)N(Cc2ccccc2Cl)C(=O)/C1=C/c1cccs1`, the pEC50 is 4.80.

With `Cc1c(C#N)c(NC(=O)CCl)n(Cc2cccs2)c1C`, the EC50 was > 80 µM (inactive).

For the compound `COc1cc(/C=C2\C(=O)ON=C2c2ccc(Cl)cc2)ccc1O`, the pEC50 is 4.93.

As to `COc1cc([C@H]2c3[nH]c4ccccc4c3C[C@H]3C(=O)N4[C@@H](c5cc(OC)c(OC)c(OC)c5)c5[nH]c6ccccc6c5C[C@H]4C(=O)N23)cc(OC)c1OC`, the pEC50 was 4.95.

Take `COc1ccc(C(=O)/C=C2/C(=O)Nc3ccccc32)c(OC)c1`: the pEC50 is 5.07.

For the compound `O=C(/C(=C/c1ccc(Cl)cc1)c1nc2ccccc2[nH]1)c1ccccc1`, the negative logarithm of the EC50 (pEC50) was 5.18.

On to `O=C(CCl)c1ccc(Cc2ncc(C(F)(F)F)cc2Cl)s1`, for which the pEC50 is 5.01.

In the case of `COC(=O)c1cc(=O)n(Cc2ccc3c(c2)OCO3)c(=Nc2ccc(F)c(Cl)c2)s1`, the EC50 was > 80 µM (inactive).

For `Cc1ccc(S(=O)(=O)N(C(=O)c2ccncc2)c2ccc(OC(=O)c3ccncc3)c3ccccc23)c(C)c1`, the pEC50 is 4.78.

On to `C[C@@H]1C[C@@H]2O[C@H]2/C=C\C=C\C(=O)Cc2c(Cl)c(O)cc(O)c2C(=O)O1`, for which the negative-log EC50 (pEC50) was 5.27.

As to `COc1ccc(O)c(/C=N/Nc2nc(Nc3ccccc3)nc(-n3nc(C)cc3C)n2)c1`, the pEC50 is 5.30.

As for `CCOC(=O)C1CCN(Cc2ccc(O)c3ncccc23)CC1`, the pEC50 is 5.56.

As for `COc1cccc(-n2c(SCC(=O)N3CCc4ccccc43)nnc2-c2c[nH]c3ccccc23)c1`, the EC50 was > 80 µM (inactive).

As for `O=C(CCl)Nc1ccc(-c2ccccc2)cc1`, the EC50 is > 80 µM (inactive).

`CCOc1ccc(N2C(=O)/C(=C\c3cccs3)C(=O)NC2=S)cc1`: the pEC50 was 5.06.

Regarding `Cn1c(/C=C/c2ccc([N+](=O)[O-])o2)nc2ccccc2c1=O`, the pEC50 was 5.16.

Turning to `O=C(CCl)N1N=C(c2cccs2)CC1c1ccco1` (stereo unspecified), the EC50 was > 80 µM (inactive).

As to `CS(=O)(=O)c1nc(-c2ccccc2)cc(-c2ccccc2)c1C#N`, the pEC50 is 4.82.

Turning to `CCCn1c(CC)nc([N+](=O)[O-])c1S(=O)(=O)c1ccccc1`, the EC50 is > 80 µM (inactive).

As to `CCc1ccc2nc(N(CCCN(C)C)C(=O)c3ccc(S(=O)(=O)N4CCc5ccccc5C4)cc3)sc2c1`, the pEC50 is 5.15.

With `Cc1ccc2c(C(=O)CCl)c(C)[nH]c2c1`, the negative logarithm of the EC50 (pEC50) is 4.95.

As for `CSc1nnc(NC(=O)c2nc(S(=O)(=O)Cc3ccccc3)ncc2Cl)s1`, the EC50 was > 80 µM (inactive).

Regarding `Oc1cc(-c2cccnc2)cc2cccnc12`, the EC50 result was “inactive”.

Take `CC1=NOC(=O)/C1=C/c1ccc(-c2ccc(Cl)cc2)o1`: the pEC50 is 5.00.

On to `CCc1ccc(N2C(=O)NC(=O)/C(=C\C=C\c3ccco3)C2=O)cc1`, for which the negative-log EC50 (pEC50) is 5.13.

With `CCOc1cccc(C(=O)Nc2cccc(-c3nnc(-c4ccc(C)cc4)o3)c2)c1`, the EC50 was > 80 µM (inactive).

For `Cc1ccc(-n2nc3cc(C)c(NC(=S)NC(=O)/C=C/c4ccco4)cc3n2)cc1`, the pEC50 is 4.79.

Consider `Cc1cccc(-n2ncc(Cl)c(Cl)c2=O)c1`, for which the pEC50 was 5.11.

In the case of `Cn1nc([N+](=O)[O-])c(C(C#N)c2ccccn2)c(Cl)c1=O` (stereo unspecified), the EC50 is > 80 µM (inactive).

For the compound `CC(C)c1nnc(NC(=O)CCS(=O)(=O)c2nc(-c3cccs3)cc(C(F)(F)F)n2)s1`, the pEC50 is 4.87.

Consider `COCc1cc(C)nc(OCC(=O)N/N=C/c2ccc(-c3cc([N+](=O)[O-])ccc3Cl)o2)c1C#N`, for which the pEC50 was 4.84.

For the compound `CCCCCCCCCn1c2c(c(=N)c3c1CCC3)CCC2`, the EC50 was > 80 µM (inactive).

With `Cc1cccc(/C=C/C(=O)c2ccc([N+](=O)[O-])o2)c1`, the pEC50 is 5.13.

Turning to `COc1ccc(-c2cc(C(F)F)n3ncc(C(=O)n4ccnc4C)c3n2)cc1`, the negative-log EC50 (pEC50) was 4.88.

Take `O=C(NCc1cccnc1)/C(=C/c1ccc(-c2cccc(Cl)c2)o1)S(=O)(=O)c1ccccc1`: the negative logarithm of the EC50 (pEC50) is 4.98.

Consider `CCOC(=O)C1=C(Cc2ccc(Cl)cc2)C(=O)c2ccccc2C1=O`, for which the EC50 was > 80 µM (inactive).

Consider `Cn1nnnc1Sc1ncnc2scc(-c3cc4ccccc4o3)c12`, for which the negative logarithm of the EC50 (pEC50) is 5.03.

With `Cc1ccccc1NC(=O)c1ccc(N/N=C/c2ccccc2O)c([N+](=O)[O-])c1`, the pEC50 is 5.04.

In the case of `CSc1nnc(NC(=O)c2nc(S(=O)(=O)Cc3cccc(C)c3)ncc2Cl)s1`, the EC50 was > 80 µM (inactive).
